These results are taken from patent US20220170081A1, “METHOD FOR DETECTING TARGET NUCLEIC ACID AND KIT” (CANON KABUSHIKI KAISHA, priority 2020, published 2022).

Data set [1] can be described thus: pH of binding buffer when amino compounds were added. In kind it is physicochemical. Particulars: FIG. 11. How it is done: Change in the pH when the concentration of each of spermidine·3HCl, spermine, and 1,3-diaminopropane added to binding buffer was changed was evaluated. Binding buffer was used for a reaction buffer.
For the next data set, the system named is EnGen Lba Cas12a (Cpf1). The data set is described as follows: Experiment of cleavage activity of Cas12a (trans-cleavage of fluorescent reporter molecule). The settings on record: for rising of fluorescence compared with no addition: addition concentration 12 mM; for addition concentration at which an effect of facilitating the reaction was observed: concentration changed between 0 to 12 mM, FIGS. 4A to 4E. In kind it is biochemical. How it is done: (§1) Thereafter, in a 96-well plate (137101, Thermo Fisher Scientific), binding buffer, various additives, a reporter molecule, and water were added, the total volume was adjusted to 80 μL, and the fluorescence intensity was measured every 2 min at 37° C. for 1 to 2 hours by using a fluorescent plate reader Synergy MX (BioTec). Regarding the measurement wavelength, for HiLyte488, an excitation wavelength of 485±20 nm and a fluorescence wavelength of 528±20 nm were used. For the IDT reporter, an excitation wavelength of 535±20 nm and a fluorescence wavelength of 595±20 nm were used. For a reporter marked with Cy5 or Alexa Fluor 647, an excitation wavelength of 620±20 nm and a fluorescence wavelength of 680±20 nm were used.
FIGS. 1A and 1B illustrate a change over time in the ratio of the fluorescence intensity of the IDT reporter to the fluorescence intensity of an internal standard dye Hilyte488.

The target in data set [2] is Alt-R A.s. Cas12a (Cpf1) Ultra (Acidaminococcus sp., UniProt U2UMQ6, F870L/M537R). The settings on record: spermine 2.0 mM; NEBuffer 2.1; various concentrations of Tween 20 and BSA; FIG. 2B. How it is done:
as §1, with “A ternary complex was formed by mixing 400-nM Cas12a, 500-nM crRNA, and a predetermined concentration of target DNA at a volume ratio of 1:1:2 and performing incubation at 37° C. for 30 to 60 minutes. Thereafter,” for “Thereafter,”

In data set [3] the target is Alt-R A.s. Cas12a (Cpf1) Nuclease V3 (Acidaminococcus sp., UniProt U2UMQ6). The settings on record: spermine 2.0 mM; NEBuffer 2.1; various concentrations of Tween 20 and BSA; FIG. 2A. How it is done: as §1, with “A ternary complex was formed by mixing 400-nM Cas12a, 500-nM crRNA, and a predetermined concentration of target DNA at a volume ratio of 1:1:2 and performing incubation at 37° C. for 30 to 60 minutes. Thereafter,” for “Thereafter,”

Turning to `Cl.Cl.Cl.NCCCCNCCCN` [spermidine·3HCl, spermidine trihydrochloride], in data set [1], the “change in the pH of binding buffer with addition concentration” value (“change in the pH of binding buffer” below) is on record as “the pH hardly changed”.
Consider `NCCCCNCCCN` [spermidine], for which, in the data set on EnGen Lba Cas12a (Cpf1), the “rising of fluorescence compared with no addition” value is reported as “the rising of fluorescence equivalent to that in the instance of no addition” and the “addition concentration at which an effect of facilitating the reaction was observed” value is at least 0.2 mM.
As to `NCCCNCCCCNCCCN` [spermine], the “change in the pH of binding buffer” value in data set [1] is given as “the pH increased with increasing the addition concentration”. The “effect of amino compound on cleavage reaction” value in data set [2] was “the reaction was facilitated”; in data set [3], “the reaction was facilitated”; in the data set with EnGen Lba Cas12a (Cpf1) (spermine 2.0 mM, NEBuffer 2.1, various concentrations of Tween 20 and BSA, FIG. 2C), “the reaction was facilitated”. Further, in the data set on EnGen Lba Cas12a (Cpf1) (2.0 mM, binding buffer and NEBuffer 2.1, 0.5% Tween 20 + 0.3% BSA or 1.5% Tween + 0.6% BSA, 1 nM target DNA), the “effect of amino compound on cleavage reaction of Cas12a (ratio of IDT reporter fluorescence to Hilyte488)” value is “facilitated the reaction”. Moreover, the “effect on cleavage reaction with respect to ten types of reporter molecules” value in the data set on EnGen Lba Cas12a (Cpf1) (2.0 mM, binding buffer, all reporter molecules of Table 1, FIG. 3B) was “the effect of facilitating the reaction by addition of the amino compound was ascertained”. Also, the “effect of facilitating the reaction” value in the data set with EnGen Lba Cas12a (Cpf1) (7.8 mM (FIG. 5A) or 1.4 mM (FIGS. 5B and 5C), binding buffer, IDT reporter) is listed as “a high effect of facilitating the reaction”. In addition, in the data set on EnGen Lba Cas12a (Cpf1), the “rising of fluorescence compared with no addition” value was “the rising of fluorescence was reduced compared with the instance of no addition”. Further, the “addition concentration at which an effect of facilitating the reaction was observed” value in the data set with EnGen Lba Cas12a (Cpf1) is at most 7.8 mM. Also, the “cleavage activity against the reporter molecule depending on timing of addition of amino compound” value with EnGen Lba Cas12a (Cpf1) (final 2.0 mM, conditions 1 to 6, binding buffer, FIGS. 9A to 9C) is “higher under condition 2, condition 4, and condition 6”.
On to `NCCCN` [1,3-diaminopropane], for which, in data set [1], the “change in the pH of binding buffer” value is on record as “the pH increased with increasing the addition concentration”.
